Assay: Diffusion coefficient of His-tagged FtsAs and His-SUMO on Tris-NTA membranes (FRAP)
Protocol: To study colocalization of His-tagged variants of FtsA, 0.5–1 µM of Cy5 labelled His-tagged FtsAs were added to the chamber, incubated for 20 min and washed 6x with reaction buffer. […] To control the density of membrane-bound FtsA, SUVs without and with Tris-NTA lipids were mixed to obtain the respective Tris-NTA concentrations. To perform FRET/FRAP experiments, equimolar concentrations of Cy3 and Cy5 labelled His-tagged FtsAs (total 0.5–1 µM) or His-SUMO-Cys were added to a chamber and treated as above. […] FRAP experiments were performed as described before.
Bleaching the acceptor dye leads to an increase in the donor intensity, which can be used to quantify the Foerster Resonance energy transfer (FRET)[48]. FRET efficiency was quantified with E%=Ipost/Ipost+Ipre⋅100 , where Ipost is the intensity of the […] and Ipre is the […]. […] To extract the contribution of both processes, we adjusted a routine recently published by Gerganova et al.[33]. In short, the code provides the contribution of both modes of recovery by analysing the shape of the fluorescence recovery profile. […] Contribution of diffusion leads to a change of the slope of the outer borders of the bleached region (S4h right). Thus, by measuring the change of the slope of the border recovery, diffusion and simple on/off binding can be distinguished. We developed “FRAPdiff”, a graphical user interface, which uses the original fit routine by David Rutkowski. It can be used directly on.tiff movies with annotated bleach regions as ImageJ ROIs. In addition, we added optional bleach correction, user selectable projection axis (x or y), and optional mirroring of the recovery profiles, if bleaching was not symmetric. The original fit routine for estimating the recovery and diffusion dynamics can be found at https://github.com/davidmrutkowski/1DReflectingDiffusion. FRAPdiff is available at 10.5281/zenodo.6400639[49] under the GPLv3 open-source license.

Question: For “FtsA-His6: FtsA WT (1-405) with amphipathic helix replaced by C-terminal His-tag”, which “Diffusion Coefficient” value (0.1% Tris NTA, + FtsZ, mean (n: WT 2, R286W 3)) is on record?
Answer: 0.07 µm2/s

Question: What about the “Diffusion Coefficient” value (0.1% Tris NTA, + FtsZ, replicate Exp1) of the same substance?
Answer: 0.14 µm2/s

Question: What about the “Diffusion Coefficient” value (0.1% Tris NTA, + FtsZ, replicate Exp2) of the same substance?
Answer: 0.000245 µm2/s

Question: What about the “Diffusion Coefficient” value (0.1% Tris NTA, without FtsZ, replicate Exp1) of the same substance?
Answer: 0.35 µm2/s

Question: And the “Diffusion Coefficient” value (0.1% Tris NTA, without FtsZ, replicate Exp2)?
Answer: 0.29 µm2/s

Question: And the “Diffusion Coefficient” value (0.4% Tris NTA, + FtsZ, mean (n: WT 2, R286W 3))?
Answer: 0.0146 µm2/s

Question: What about the “Diffusion Coefficient” value (0.4% Tris NTA, + FtsZ, replicate Exp1) of the same substance?
Answer: 0.0175 µm2/s

Question: What about the “Diffusion Coefficient” value (0.4% Tris NTA, + FtsZ, replicate Exp2) of the same substance?
Answer: 0.0117 µm2/s

Question: And the “Diffusion Coefficient” value (0.4% Tris NTA, without FtsZ, replicate Exp1)?
Answer: 0.11 µm2/s

Question: What about the “Diffusion Coefficient” value (0.4% Tris NTA, without FtsZ, replicate Exp2) of the same substance?
Answer: 0.10 µm2/s

Question: What about the “Diffusion Coefficient” value (0.6% Tris NTA, + FtsZ, mean (n: WT 5, R286W 5)) of the same substance?
Answer: 0.0113 µm2/s

Question: What about the “Diffusion Coefficient” value (0.6% Tris NTA, + FtsZ, replicate Exp1) of the same substance?
Answer: 0.02 µm2/s

Question: And the “Diffusion Coefficient” value (0.6% Tris NTA, + FtsZ, replicate Exp2)?
Answer: 0.01 µm2/s

Question: And the “Diffusion Coefficient” value (0.6% Tris NTA, + FtsZ, replicate Exp3)?
Answer: 0.0152 µm2/s

Question: What about the “Diffusion Coefficient” value (0.6% Tris NTA, + FtsZ, replicate Exp4) of the same substance?
Answer: 0.00625 µm2/s

Question: What about the “Diffusion Coefficient” value (0.6% Tris NTA, + FtsZ, replicate Exp5) of the same substance?
Answer: 0.00411 µm2/s

Question: And the “Diffusion Coefficient” value (0.6% Tris NTA, without FtsZ, mean (n: WT 4, R286W 5, SUMO 4))?
Answer: 0.03 µm2/s

Question: And the “Diffusion Coefficient” value (0.6% Tris NTA, without FtsZ, replicate Exp1)?
Answer: 0.0256 µm2/s

Question: What about the “Diffusion Coefficient” value (0.6% Tris NTA, without FtsZ, replicate Exp2) of the same substance?
Answer: 0.00783 µm2/s

Question: What about the “Diffusion Coefficient” value (0.6% Tris NTA, without FtsZ, replicate Exp3) of the same substance?
Answer: 0.0422 µm2/s

Question: And the “Diffusion Coefficient” value (0.6% Tris NTA, without FtsZ, replicate Exp4)?
Answer: 0.046 µm2/s

Question: What about the “Diffusion Coefficient” value (0.8% Tris NTA, + FtsZ, mean) of the same substance?
Answer: 0.012 µm2/s

Question: What about the “Diffusion Coefficient” value (0.8% Tris NTA, + FtsZ, replicate Exp1) of the same substance?
Answer: 0.00842 µm2/s

Question: What about the “Diffusion Coefficient” value (0.8% Tris NTA, + FtsZ, replicate Exp2) of the same substance?
Answer: 0.00437 µm2/s

Question: And the “Diffusion Coefficient” value (0.8% Tris NTA, + FtsZ, replicate Exp3)?
Answer: 0.00795 µm2/s

Question: And the “Diffusion Coefficient” value (0.8% Tris NTA, + FtsZ, replicate Exp4)?
Answer: 0.03 µm2/s

Question: And the “Diffusion Coefficient” value (0.8% Tris NTA, + FtsZ, replicate Exp5)?
Answer: 0.00835 µm2/s

Question: And the “Diffusion Coefficient” value (0.8% Tris NTA, without FtsZ, mean)?
Answer: 0.0135 µm2/s

Question: And the “Diffusion Coefficient” value (0.8% Tris NTA, without FtsZ, replicate Exp1)?
Answer: 0.0179 µm2/s

Question: And the “Diffusion Coefficient” value (0.8% Tris NTA, without FtsZ, replicate Exp3)?
Answer: 8.35e-15 µm2/s

Question: What about the “Diffusion Coefficient” value (0.8% Tris NTA, without FtsZ, replicate Exp4) of the same substance?
Answer: 0.0124 µm2/s

Question: And the “Diffusion Coefficient” value (0.8% Tris NTA, without FtsZ, replicate Exp5)?
Answer: 0.0374 µm2/s

Question: What about the “Diffusion Coefficient” value (1% Tris NTA, + FtsZ, mean) of the same substance?
Answer: 0.02 µm2/s

Question: What about the “Diffusion Coefficient” value (1% Tris NTA, + FtsZ, replicate Exp1) of the same substance?
Answer: 0.0115 µm2/s

Question: What about the “Diffusion Coefficient” value (1% Tris NTA, + FtsZ, replicate Exp2) of the same substance?
Answer: 0.00322 µm2/s

Question: And the “Diffusion Coefficient” value (1% Tris NTA, + FtsZ, replicate Exp3)?
Answer: 0.00542 µm2/s

Question: And the “Diffusion Coefficient” value (1% Tris NTA, + FtsZ, replicate Exp4)?
Answer: 0.00574 µm2/s

Question: What about the “Diffusion Coefficient” value (1% Tris NTA, + FtsZ, replicate Exp5) of the same substance?
Answer: 0.07 µm2/s

Question: And the “Diffusion Coefficient” value (1% Tris NTA, + FtsZ, replicate Exp6)?
Answer: 0.0435 µm2/s

Question: What about the “Diffusion Coefficient” value (1% Tris NTA, + FtsZ, replicate Exp7) of the same substance?
Answer: 0.000437 µm2/s

Question: And the “Diffusion Coefficient” value (1% Tris NTA, without FtsZ, mean)?
Answer: 0.0254 µm2/s

Question: And the “Diffusion Coefficient” value (1% Tris NTA, without FtsZ, replicate Exp1)?
Answer: 0.0438 µm2/s

Question: What about the “Diffusion Coefficient” value (1% Tris NTA, without FtsZ, replicate Exp2) of the same substance?
Answer: 0.000108 µm2/s

Question: And the “Diffusion Coefficient” value (1% Tris NTA, without FtsZ, replicate Exp3)?
Answer: 6.32e-6 µm2/s

Question: And the “Diffusion Coefficient” value (1% Tris NTA, without FtsZ, replicate Exp4)?
Answer: 0.06 µm2/s

Question: And the Diffusion Coefficient (Tris 0.10 %, + FtsZ)?
Answer: 0.07 µm2/s

Question: And the Diffusion Coefficient (Tris 0.10 %, without FtsZ)?
Answer: 0.32 µm2/s

Question: And the Diffusion Coefficient (Tris 0.40 %, + FtsZ)?
Answer: 0.0146 µm2/s

Question: What about the Diffusion Coefficient (Tris 0.40 %, without FtsZ) of the same substance?
Answer: 0.11 µm2/s

Question: And the Diffusion Coefficient (Tris 0.60 %, + FtsZ)?
Answer: 0.0113 µm2/s

Question: What about the Diffusion Coefficient (Tris 0.60 %, without FtsZ) of the same substance?
Answer: 0.03 µm2/s

Question: And the Diffusion Coefficient (Tris 0.80 %, + FtsZ)?
Answer: 0.012 µm2/s

Question: What about the Diffusion Coefficient (Tris 0.80 %, without FtsZ) of the same substance?
Answer: 0.0135 µm2/s

Question: And the Diffusion Coefficient (Tris 1.00 %, + FtsZ)?
Answer: 0.02 µm2/s

Question: And the Diffusion Coefficient (Tris 1.00 %, without FtsZ)?
Answer: 0.0254 µm2/s

Question: What about the Diffusion Coefficient (Tris 2.00 %, + FtsZ) of the same substance?
Answer: 0.000263 µm2/s

Question: And the Diffusion Coefficient (Tris 2.00 %, without FtsZ)?
Answer: 0.00604 µm2/s

Question: What about the “Diffusion Coefficient” value ([…] Tris NTA, + FtsZ, mean (n: WT 2, R286W 3)) of the same substance?
Answer: 0.03 µm2/s

Question: And the “Diffusion Coefficient” value ([…] Tris NTA, + FtsZ, replicate Exp1)?
Answer: 0.05 µm2/s

Question: And the “Diffusion Coefficient” value ([…] Tris NTA, + FtsZ, replicate Exp2)?
Answer: 0.0108 µm2/s

Question: What about the “Diffusion Coefficient” value ([…] Tris NTA, without FtsZ, replicate Exp1) of the same substance?
Answer: 0.11 µm2/s

Question: What about the “Diffusion Coefficient” value ([…] Tris NTA, without FtsZ, replicate Exp2) of the same substance?
Answer: 0.14 µm2/s

Question: And the Diffusion Coefficient ([…] Tris-NTA, + N (FtsNcyto), mean)?
Answer: 1.72E-05 µm2/s

Question: What about the Diffusion Coefficient ([…] Tris-NTA, + N/Z, Exp. 1) of the same substance?
Answer: 1.69E-05 µm2/s

Question: And the Diffusion Coefficient ([…] Tris-NTA, + N/Z, Exp. 2)?
Answer: 1.87E-06 µm2/s

Question: And the Diffusion Coefficient ([…] Tris-NTA, + N/Z, Exp. 3)?
Answer: 5.64E-12 µm2/s

Question: And the Diffusion Coefficient ([…] Tris-NTA, + N/Z, mean)?
Answer: 6.26E-06 µm2/s

Question: And the Diffusion Coefficient ([…] Tris-NTA, + N, Exp. 1)?
Answer: 1.23E-05 µm2/s

Question: What about the Diffusion Coefficient ([…] Tris-NTA, + N, Exp. 2) of the same substance?
Answer: 2.69E-05 µm2/s

Question: What about the Diffusion Coefficient ([…] Tris-NTA, + N, Exp. 3) of the same substance?
Answer: 1.23E-05 µm2/s

Question: What about the Diffusion Coefficient ([…] Tris-NTA, + Z (FtsZ), mean) of the same substance?
Answer: 1.67E-03 µm2/s

Question: What about the Diffusion Coefficient ([…] Tris-NTA, + Z, Exp. 1) of the same substance?
Answer: 3.64E-05 µm2/s

Question: And the Diffusion Coefficient ([…] Tris-NTA, + Z, Exp. 2)?
Answer: 4.36E-03 µm2/s

Question: What about the Diffusion Coefficient ([…] Tris-NTA, + Z, Exp. 3) of the same substance?
Answer: 1.74E-03 µm2/s

Question: What about the Diffusion Coefficient ([…] Tris-NTA, + Z, Exp. 4) of the same substance?
Answer: 5.51E-04 µm2/s

Question: And the Diffusion Coefficient ([…] Tris-NTA, alone, Exp. 1)?
Answer: 1.17E-02 µm2/s

Question: What about the Diffusion Coefficient ([…] Tris-NTA, alone, Exp. 2) of the same substance?
Answer: 2.57E-05 µm2/s

Question: What about the Diffusion Coefficient ([…] Tris-NTA, alone, Exp. 3) of the same substance?
Answer: 3.15E-03 µm2/s

Question: What about the Diffusion Coefficient ([…] Tris-NTA, alone, Exp. 4) of the same substance?
Answer: 7.92E-04 µm2/s

Question: What about the Diffusion Coefficient ([…] Tris-NTA, alone, mean) of the same substance?
Answer: 3.92E-03 µm2/s
